IC50 data for 5 compounds are collected here from patent US20260226084A1, “DUAL RAF AND TUBULIN INHIBITORS AND METHODS OF USE THEREOF” (Deciphera Pharmaceuticals, LLC, priority 2023, published 2026).

The target in assay [1] is T1, B-Raf kinase (SEQ ID NO: 1) (Homo sapiens, UniProt P15056).
T1 construct: GST (N); purchased Sigma
As to the kind of experiment: Biochemical Assay for B-Raf (coupled pyruvate kinase/lactate dehydrogenase assay).

Another assay concerns MiaPaca-2 cells. As to the kind of experiment: MiaPaca-2 Cell Proliferation Assay. Format: cell-based. As to conditions: Homo sapiens. The gist of the method: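 Viability was read as resazurin fluorescence (540 nm excitation, 600 nm emission) after 5–6 h with dye. Compounds were tested as serial dilutions in triplicate, with IC50 derived from the dose–response.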
The mark [2] stands for this setting: 1 mM ATP, read-out: BRAF (inhibition of biochemical activity, IC50).
Where [3] appears, read: Table 3, read-out: BRAF (IC50 class).
Where [4] appears, read: MIA PaCa-2, MiaPaca-2 cells, Table 2, read-out: Inhibition of cell proliferation in MiaPaca-2 (IC50 class).
Setting [5] is: MIA PaCa-2, Table 3, read-out: MiaPaca-2 (IC50 class).

SMILES strings stand for the structures. Where two headings read alike, the source gives them in different places.

T1 sequence (P15056 416-766): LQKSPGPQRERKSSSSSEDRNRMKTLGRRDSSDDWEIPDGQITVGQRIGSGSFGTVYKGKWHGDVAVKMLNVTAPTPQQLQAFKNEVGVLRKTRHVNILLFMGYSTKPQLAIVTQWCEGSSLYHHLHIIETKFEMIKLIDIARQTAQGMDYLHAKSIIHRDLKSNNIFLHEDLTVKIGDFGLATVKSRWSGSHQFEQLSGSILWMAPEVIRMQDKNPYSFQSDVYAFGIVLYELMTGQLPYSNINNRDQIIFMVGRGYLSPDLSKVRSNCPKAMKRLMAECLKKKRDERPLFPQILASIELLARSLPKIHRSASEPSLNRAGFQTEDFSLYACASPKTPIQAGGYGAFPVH

Regarding `Cc1ccc(NC(=O)c2cnc(C(F)(F)F)nc2)cc1-c1ccnc(-c2ccnc(NC(=O)C3CC3)c2)c1` [Example 17], the IC50 (in assay [1] (setting [2]); in assay [1] (setting [3]); in the assay on MiaPaca-2 cells (setting [4]); in the assay with MiaPaca-2 cells (setting [5])) was 100 to 500 nM in each case.

As to `Cc1ccc(NC(=O)c2cc(C3CC3)cnn2)cc1-c1ccnc(-c2ccnc(NC(=O)C3CC3)c2)c1` [Example 43], the IC50 (in assay [1] (setting [2]); in assay [1] (setting [3]); in the assay on MiaPaca-2 cells (setting [4]); in the assay on MiaPaca-2 cells (setting [5])) was below 100 nM throughout.

As to `Cc1ccc(NC(=O)c2cc(C(C)(F)F)cnn2)cc1-c1ccnc(-c2ccnc(NC(=O)C3CC3)c2)c1` [Example 57], the IC50 (in assay [1] (setting [2]); in assay [1] (setting [3]); in the assay on MiaPaca-2 cells (setting [4]); in the assay on MiaPaca-2 cells (setting [5])) was below 100 nM throughout.

For the compound `Cc1ccc(NC(=O)c2cc(C(F)(F)F)cnn2)cc1-c1ccnc(-c2ccnc(NC(=O)C3CC3)c2)c1` [Example 67], the IC50 (in assay [1] (setting [2]); in assay [1] (setting [3]); with MiaPaca-2 cells (setting [4]); in the assay with MiaPaca-2 cells (setting [5])) was below 100 nM each time.

On to `Cc1ccc(NC(=O)c2cc(C#N)cnn2)cc1-c1ccnc(-c2ccnc(NC(=O)C3CC3)c2)c1` [Example 96, 5-cyano-N-(3-(2′-(cyclopropanecarboxamido)-[2,4′-bipyridin]-4-yl)-4-methylphenyl)pyridazine-3-carboxamide], for which the IC50 (in assay [1] (setting [2]); in assay [1] (setting [3]); in the assay with MiaPaca-2 cells (setting [4]); with MiaPaca-2 cells (setting [5])) was below 100 nM throughout.
